Experimental data: ChEMBL document CHEMBL1201862, “PubChem BioAssay data set” (2004)
Calls of active or inactive are those of the source.

Tests used:
HEK293 = test: inhibitors of LMP1-driven NF-kB reporter, dose response, cell-based, HEK293, luciferase, cherry-pick (AID 588343); assay type: functional; details: Homo sapiens
[1] = target: T1, Replicative DNA helicase DnaB (Mycobacterium tuberculosis, UniProt P9WMR3); test: DnaB intein splicing inhibitors, dose response, biochemical, cell-free fluorescence (AID 449749); assay type: functional
T1 sequence (P9WMR3 whole entry): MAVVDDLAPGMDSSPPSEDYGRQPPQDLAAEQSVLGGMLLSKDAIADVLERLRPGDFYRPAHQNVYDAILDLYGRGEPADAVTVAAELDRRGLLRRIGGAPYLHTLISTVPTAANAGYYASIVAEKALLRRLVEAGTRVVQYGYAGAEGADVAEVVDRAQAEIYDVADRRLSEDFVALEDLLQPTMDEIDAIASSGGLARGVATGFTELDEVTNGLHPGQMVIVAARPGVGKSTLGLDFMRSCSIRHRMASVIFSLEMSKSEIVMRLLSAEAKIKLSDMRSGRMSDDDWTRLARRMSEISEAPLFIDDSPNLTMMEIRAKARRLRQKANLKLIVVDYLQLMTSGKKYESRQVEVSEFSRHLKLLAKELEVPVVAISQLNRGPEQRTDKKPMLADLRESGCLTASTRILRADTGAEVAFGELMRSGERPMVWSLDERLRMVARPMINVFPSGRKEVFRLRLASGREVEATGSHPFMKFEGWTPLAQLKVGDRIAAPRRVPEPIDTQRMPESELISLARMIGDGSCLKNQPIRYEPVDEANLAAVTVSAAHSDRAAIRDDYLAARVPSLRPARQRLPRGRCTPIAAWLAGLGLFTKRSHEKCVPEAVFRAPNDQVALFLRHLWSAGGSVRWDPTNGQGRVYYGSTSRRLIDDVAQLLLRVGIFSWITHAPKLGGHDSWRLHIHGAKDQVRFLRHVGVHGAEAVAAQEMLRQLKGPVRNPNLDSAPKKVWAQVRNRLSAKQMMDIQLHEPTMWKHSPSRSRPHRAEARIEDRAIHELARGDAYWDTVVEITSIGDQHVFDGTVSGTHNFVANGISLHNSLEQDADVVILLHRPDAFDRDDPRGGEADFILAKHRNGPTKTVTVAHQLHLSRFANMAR

Protein RecA = target: T2, Protein RecA (Mycobacterium tuberculosis, UniProt P9WHJ3); test: Fluorescence Cell-Free Homogeneous Dose Retest to Identify Inhibitors of RecA-Intein Splicing Activity. [Related pubchem assays (depositor defined):AID2097, AID2223, AID489010, AID492950]; assay type: functional
T2 sequence (P9WHJ3 whole entry): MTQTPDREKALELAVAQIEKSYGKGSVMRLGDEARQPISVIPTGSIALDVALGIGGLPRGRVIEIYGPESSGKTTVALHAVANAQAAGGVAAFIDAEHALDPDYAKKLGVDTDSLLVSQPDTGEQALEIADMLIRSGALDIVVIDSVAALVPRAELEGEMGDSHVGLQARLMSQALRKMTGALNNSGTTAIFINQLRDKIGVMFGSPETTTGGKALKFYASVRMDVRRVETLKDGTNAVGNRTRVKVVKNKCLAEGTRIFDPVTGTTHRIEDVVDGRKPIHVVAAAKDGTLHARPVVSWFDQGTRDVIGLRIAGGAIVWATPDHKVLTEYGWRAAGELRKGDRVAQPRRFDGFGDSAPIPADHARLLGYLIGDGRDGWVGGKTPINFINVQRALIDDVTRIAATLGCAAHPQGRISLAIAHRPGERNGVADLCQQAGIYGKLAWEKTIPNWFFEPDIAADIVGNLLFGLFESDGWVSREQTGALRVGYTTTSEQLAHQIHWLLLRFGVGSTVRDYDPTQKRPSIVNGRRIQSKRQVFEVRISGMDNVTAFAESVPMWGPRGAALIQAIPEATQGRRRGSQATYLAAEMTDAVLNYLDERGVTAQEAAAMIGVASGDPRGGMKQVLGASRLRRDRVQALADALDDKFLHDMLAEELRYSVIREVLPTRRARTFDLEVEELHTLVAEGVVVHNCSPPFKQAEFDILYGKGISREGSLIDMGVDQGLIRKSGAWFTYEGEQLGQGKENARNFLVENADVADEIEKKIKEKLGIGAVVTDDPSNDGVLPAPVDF

[2] = target: T3, Heat shock factor protein 1 (Mus musculus, UniProt P38532); test: HSF1 potentiators in luciferase reporter cells, confirmation, cell-based, NIH3T3, luminescence, dose retest (AID 435004); assay type: functional;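 also: stress induced by proteasome inhibitor MG132 added 30 min after compound; luciferase reporter driven by HSF1 response element in NIH3T3 cells; actives raise luminescence as potentiators of the MG132 stress response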
T3 sequence (P38532 whole entry): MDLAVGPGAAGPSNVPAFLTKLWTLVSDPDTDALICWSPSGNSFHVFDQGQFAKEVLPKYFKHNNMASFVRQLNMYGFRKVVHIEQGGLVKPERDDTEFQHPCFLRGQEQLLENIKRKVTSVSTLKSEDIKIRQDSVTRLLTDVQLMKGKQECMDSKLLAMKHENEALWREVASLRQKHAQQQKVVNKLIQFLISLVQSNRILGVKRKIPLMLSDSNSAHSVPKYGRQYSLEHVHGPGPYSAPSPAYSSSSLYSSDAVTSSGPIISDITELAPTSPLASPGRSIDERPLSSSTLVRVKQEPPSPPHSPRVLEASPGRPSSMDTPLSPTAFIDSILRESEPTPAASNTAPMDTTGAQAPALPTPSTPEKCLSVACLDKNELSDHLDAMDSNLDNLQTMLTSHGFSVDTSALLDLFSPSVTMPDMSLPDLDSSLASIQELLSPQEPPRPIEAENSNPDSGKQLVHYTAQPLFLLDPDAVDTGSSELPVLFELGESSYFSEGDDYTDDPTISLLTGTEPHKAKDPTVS

[3] = target: T4, Microphthalmia-associated transcription factor (Homo sapiens, UniProt O75030); test: TRPM1 promoter luciferase signal decrease, dose response, MITF inhibitor project, cell-based, SK-MEL-5, cherry-picked, set 3 (AID 493073); assay type: functional
T4 sequence (O75030 whole entry): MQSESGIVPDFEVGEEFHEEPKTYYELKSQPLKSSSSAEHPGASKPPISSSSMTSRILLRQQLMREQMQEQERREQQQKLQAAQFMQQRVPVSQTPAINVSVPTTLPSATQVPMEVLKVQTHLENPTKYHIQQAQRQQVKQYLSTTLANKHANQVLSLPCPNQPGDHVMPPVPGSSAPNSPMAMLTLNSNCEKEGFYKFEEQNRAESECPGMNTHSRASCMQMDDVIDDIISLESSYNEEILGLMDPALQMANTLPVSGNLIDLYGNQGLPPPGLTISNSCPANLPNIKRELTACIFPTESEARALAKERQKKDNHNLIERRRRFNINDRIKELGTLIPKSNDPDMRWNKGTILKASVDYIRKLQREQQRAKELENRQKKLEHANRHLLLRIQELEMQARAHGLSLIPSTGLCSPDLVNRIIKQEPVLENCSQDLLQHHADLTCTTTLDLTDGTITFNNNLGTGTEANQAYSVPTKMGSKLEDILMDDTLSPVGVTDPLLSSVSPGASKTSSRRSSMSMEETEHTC

[4] = control 3'UTR Renilla luciferase suppression, dose response, counter-screen for Shn3 inhibitor project, cell-based, Clone20-Shn3RL, cherry-picked (AID 624133); assay type: functional
[5] = cytotoxicity toward NIH3T3 fibroblasts, dose response, counter-screen, cell-based, ATP luminescence, mouse fibroblasts (AID 2010); assay type: functional;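 also: cells exposed to compound for about 90 hours before reading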
[6] = HepG2 cell cytotoxicity, dose response, cytotoxicity control for Shn3 inhibitor project, CellTiter-Glo, cherry-picked (AID 624134); assay type: functional, cell-based
[7] = inhibitors of intracellular T. cruzi replication, confirmation, NIH3T3 host cells, beta-gal luminescence (AID 2044); assay type: functional, cell-based;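 also: intracellular parasites grown in NIH/3T3 mouse fibroblasts as host cells; luminescent beta-galactosidase reporter signal from transgenic T. cruzi replicating inside host cells; inhibitors lower the luminescence signal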
[8] = Shn3 3'UTR reporter inhibitors, dose response, cell-based, Clone20 osteoblasts, firefly luciferase, cherry-picked (AID 624132); assay type: functional;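 also: firefly luciferase luminescence from reporter carrying the Shn3 3'UTR in osteoblasts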
Leucine aminopeptidase = target: T5, Leucine aminopeptidase (Plasmodium falciparum 3D7, UniProt Q8IL11); test: P. falciparum M17LAP inhibitors, primary screen, biochemical, fluorogenic H-Leu-NHMec substrate, 1536-well (AID 1619); assay type: functional
T5 sequence (Q8IL11 whole entry): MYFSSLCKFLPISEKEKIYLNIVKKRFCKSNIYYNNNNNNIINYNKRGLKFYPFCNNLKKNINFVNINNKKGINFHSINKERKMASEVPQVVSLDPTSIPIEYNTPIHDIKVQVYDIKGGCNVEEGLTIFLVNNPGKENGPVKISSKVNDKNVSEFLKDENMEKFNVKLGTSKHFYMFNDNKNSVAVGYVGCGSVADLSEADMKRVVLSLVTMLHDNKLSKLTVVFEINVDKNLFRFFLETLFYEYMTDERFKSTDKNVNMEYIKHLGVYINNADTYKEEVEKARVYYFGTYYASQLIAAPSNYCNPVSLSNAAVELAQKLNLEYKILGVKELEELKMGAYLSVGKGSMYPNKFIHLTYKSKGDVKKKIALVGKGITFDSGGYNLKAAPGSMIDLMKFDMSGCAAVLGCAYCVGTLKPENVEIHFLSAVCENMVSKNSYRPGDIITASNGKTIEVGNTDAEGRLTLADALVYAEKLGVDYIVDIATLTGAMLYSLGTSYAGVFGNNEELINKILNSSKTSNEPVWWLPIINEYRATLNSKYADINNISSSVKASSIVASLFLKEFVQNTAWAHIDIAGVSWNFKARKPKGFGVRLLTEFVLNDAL

[9] = Luminescence Cell-Based Dose Retest to Confirm Inhibitors of Cancer Stem Cells. [Related pubchem assays (depositor defined):AID2717, AID2721]; assay type: functional; details: Homo sapiens
[10] = target: Heat shock protein HSP 90-alpha (Homo sapiens, UniProt P07900); assay type: functional, organism-based
SN12K1 = test: cells; assay type: functional; details: Homo sapiens
P388 = test: cells; assay type: functional; details: Mus musculus
P388/ADR = test: cells; assay type: functional; details: Mus musculus
[11] = inhibitors of HIV Env-driven cell fusion, dose response, cherry-pick (AID 652057); assay type: functional, cell-based
[12] = inhibitors of clade B AD8 Env fusion, dose response, cell-based, cherry-pick (AID 652062); assay type: functional;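 also: luciferase signal from cell-cell fusion driven by HIV-1 clade B AD8 Env; potency is for inhibitors of fusion seen as a drop in luminescence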
[13] = ZM109 Env clade C HIV-1 fusion inhibitors, dose response, HeLa effector, CEM target cells, luciferase, cherry-pick (AID 652058); assay type: functional, cell-based

O=c1c2cnn(-c3ccccc3)c2nc(-c2cccs2)n1-c1ccc(Br)cc1
AC50 (HEK293): 1.77 µM (active)

O=C(CCl)Nc1cccc(Oc2ccccc2)c1
AC50 [1]: 11.9 µM (active)
EC50 (Protein RecA): 4.28 µM (active)
EC50 [2]: > 260 µM (inactive)
AC50 [3]: 8.07 µM (active)

Oc1nc(Nc2nc3ccccc3o2)nc2c1CCCC2
AC50 [4]: 5.26 µM (active)
EC50 [5]: 3.87 µM (active)
AC50 [6]: 9.63 µM (active)
EC50 [7]: 1.9 µM (active)
AC50 (HEK293): 2.05 µM (active)
AC50 [8]: 7.71 µM (active)

O=c1[nH]c2ccc(S(=O)(=O)N3CCN(Cc4ccccc4)CC3)cc2[nH]c1=O
IC50 (Leucine aminopeptidase): 2.62 µM (active)

O=S(=O)(Nc1nc2ccccc2nc1NCCN1CCOCC1)c1cccc(Cl)c1
IC50 (Leucine aminopeptidase): 25.9 µM (active)

Cc1ccccc1NC(=O)C(Cl)=C(Cl)Cl
AC50 (HEK293): 22.1 µM (active)
AC50 [9]: 6.73 µM (active)

COc1ccc(Cc2nnc(NS(=O)(=O)Cc3ccccc3)s2)cc1
IC50 (Leucine aminopeptidase): 6.34 µM (active)

c1ccc(C(=NNc2nc3ccccc3s2)c2ccccn2)cc1
AC50 (HEK293): 3.05 µM (active)
AC50 [10]: 16.4 µM (active)

Nc1cccc2c1C1=NNC(=O)CC1C2 (stereo not given)
GI50 (SN12K1): > 100 µM (inactive)
GI50 (P388): > 100 µM (inactive)

c1ccc2c(c1)OCCc1cn[nH]c1-2
GI50 (SN12K1): > 100 µM (inactive)
GI50 (P388): > 100 µM (inactive)
GI50 (P388/ADR): > 100 µM (inactive)

CSc1nc(CO)c(CO)n1C
GI50 (SN12K1): > 100 µM (inactive)
GI50 (P388): > 100 µM (inactive)
GI50 (P388/ADR): > 100 µM (inactive)

CSc1nc(NC2OC(CO)C(O)C(O)C2O)c(N)c(=O)[nH]1 (stereo not given)
GI50 (SN12K1): > 100 µM (inactive)
GI50 (P388): > 100 µM (inactive)
GI50 (P388/ADR): > 100 µM (inactive)

CNC(=O)SCC(N)C(=O)O (stereo not given)
GI50 (SN12K1): 62.2 µM (inactive)
GI50 (P388): 16.5 µM (inactive)
GI50 (P388/ADR): 16.8 µM (inactive)

CC(=O)Oc1cc2c(cc1OC(C)=O)OCC(c1ccccc1)C2 (stereo not given)
GI50 (SN12K1): 13.6 µM (inactive)
GI50 (P388): 4.16 µM (inactive)
GI50 (P388/ADR): 4.08 µM (inactive)

COc1ccc2c(c1O)-c1cc(O)cc3c1[C@@H](C2)N(C)CC3
GI50 (SN12K1): 63.4 µM (inactive)
GI50 (P388): 9.1 µM (inactive)
GI50 (P388/ADR): 40.2 µM (inactive)

COc1ccc(CNC(=O)N(C)C[C@H]2OCc3ccccc3-c3ccccc3C(=O)N([C@H](C)CO)C[C@@H]2C)cc1
AC50 [11]: 0.826 µM (active)
AC50 [12]: 3.51 µM (active)
AC50 [13]: 1.16 µM (active)

C[C@H](CO)N1C[C@H](C)[C@H](CN(C)S(=O)(=O)c2ccccc2)Oc2ncc(/C=C/c3ccccc3)cc2C1=O
AC50 [13]: 3.51 µM (active)

C[C@H](CO)N1C[C@H](C)[C@H](CN(C)S(=O)(=O)c2ccccc2)Oc2ccc(NS(=O)(=O)c3cccs3)cc2CC1=O
AC50 [11]: 0.557 µM (active)
AC50 [12]: 12.6 µM (active)
AC50 [13]: 2.13 µM (active)

C[C@H](CO)N1C[C@H](C)[C@H](CN(C)CC2CC2)Oc2ccc(NC(=O)Nc3ccc4c(c3)OCO4)cc2CC1=O
AC50 [11]: 4.41 µM (active)
AC50 [12]: 20.5 µM (active)

COc1cccc(-c2cnc3c(c2)C(=O)N([C@H](C)CO)C[C@H](C)[C@H](CN(C)C(=O)Nc2cccc4ccccc24)O3)c1
AC50 [11]: < 0.26 µM (active)
AC50 [12]: 0.407 µM (active)
AC50 [13]: 0.284 µM (active)
